According to patent US12643881B2, “Bicyclic amine CDK12 inhibitors” (Incyte Corporation, priority 2021, dated 2026):

What follows are compounds tested against T1, CDK12 complexed with Cyclin K (Homo sapiens, UniProt Q9NYV4) (assay: CDK Enzymatic Assays (HTRF, LANCE Ultra kinase assay), Example A1). Conditions: enzyme pre-incubated with compounds for 60 minutes prior to addition of ATP (1 mM final) and Ulight-peptide; reaction 60-90 minutes at room temperature.
T1 construct: GST (N)
Format: biochemical
Text: Example A1. CDK Enzymatic Assays
The following activity of the CDK enzymes in complex with their respective cyclins we assayed: CDK1 complexed with Cyclin B1; CDK2 complexed with Cyclin E1; CDK4 complexed with Cyclin D1; CDK6 complexed with Cyclin D1; CDK6 complexed with Cyclin D3; CDK9 complexed with Cyclin T1; CDK7 complexed with Cyclin H/MAT1; CDK2 complexed with Cyclin A2; CDK5 complexed with p35; CDK12 complexed with Cyclin K; CDK13 complexed with Cyclin K. These in vitro enzyme activity are assayed using homogeneous time-resolved energy transfer (HTRF), which measures phosphorylation of a peptide substrate. The LANCER Ultra kinase assay (PerkinElmer) uses a ULight™-labeled EIF4E-binding protein 1 (THR37/46) peptide (DYSTTPGGTLFSTTPGTRI (SEQ ID NO: 1)) substrate and a Europium-labeled anti-phospho-4E-BP1 antibody (CDK2, CDK1, CDK4, CDK6, CDK9, CDK12, CDK13) or ULight™-labeled Myelin Basic Protein peptide (VTPRTPPP (SEQ ID NO: 2)) substrate and a Europium-labeled anti-phospho-MBP antibody (CDK7). Each CDK enzyme activity assays utilized human CDK co-expressed as N-terminal GST-tagged protein with its full length cyclin partner using a baculovirus expression system.
Enzyme was pre-incubated with compounds for 30 minutes (CDK1,2,4,6,9) or 60 minutes (CDK7, CDK12, CDK13) prior to addition of ATP and Ulight-peptide (1 mM and 50 nM final, respectively), in assay buffer containing 50 mM HEPES pH 7.5, 1 mM EGTA, 10 mM MgCl2, 2 mM DTT, 0.05 mg/mL BSA, and 0.01% Tween 20. The reaction was then incubated for 60-90 minutes at room temperature. The reactions were stopped by the addition of EDTA and Europium labeled antibody, for a final concentration of 15 mM and 1.0-1.5 nM, respectively. HTRF signals were read after 15-120 minutes. A ratio of fluorescence transferred to the labeled substrate (665 nm) relative to fluorescence of the Europium donor (620 nm) represents the extent of phosphorylation. Ratios for treated wells were normalized to DMSO only (100% activity) and no enzyme (0% activity) controls. Normalized data was analyzed using a three or four parameter dose response curve to determine IC50 for each compound and are shown in Table A. Control reference inhibitors were included on each plate.

T1 sequence (Q9NYV4 whole entry): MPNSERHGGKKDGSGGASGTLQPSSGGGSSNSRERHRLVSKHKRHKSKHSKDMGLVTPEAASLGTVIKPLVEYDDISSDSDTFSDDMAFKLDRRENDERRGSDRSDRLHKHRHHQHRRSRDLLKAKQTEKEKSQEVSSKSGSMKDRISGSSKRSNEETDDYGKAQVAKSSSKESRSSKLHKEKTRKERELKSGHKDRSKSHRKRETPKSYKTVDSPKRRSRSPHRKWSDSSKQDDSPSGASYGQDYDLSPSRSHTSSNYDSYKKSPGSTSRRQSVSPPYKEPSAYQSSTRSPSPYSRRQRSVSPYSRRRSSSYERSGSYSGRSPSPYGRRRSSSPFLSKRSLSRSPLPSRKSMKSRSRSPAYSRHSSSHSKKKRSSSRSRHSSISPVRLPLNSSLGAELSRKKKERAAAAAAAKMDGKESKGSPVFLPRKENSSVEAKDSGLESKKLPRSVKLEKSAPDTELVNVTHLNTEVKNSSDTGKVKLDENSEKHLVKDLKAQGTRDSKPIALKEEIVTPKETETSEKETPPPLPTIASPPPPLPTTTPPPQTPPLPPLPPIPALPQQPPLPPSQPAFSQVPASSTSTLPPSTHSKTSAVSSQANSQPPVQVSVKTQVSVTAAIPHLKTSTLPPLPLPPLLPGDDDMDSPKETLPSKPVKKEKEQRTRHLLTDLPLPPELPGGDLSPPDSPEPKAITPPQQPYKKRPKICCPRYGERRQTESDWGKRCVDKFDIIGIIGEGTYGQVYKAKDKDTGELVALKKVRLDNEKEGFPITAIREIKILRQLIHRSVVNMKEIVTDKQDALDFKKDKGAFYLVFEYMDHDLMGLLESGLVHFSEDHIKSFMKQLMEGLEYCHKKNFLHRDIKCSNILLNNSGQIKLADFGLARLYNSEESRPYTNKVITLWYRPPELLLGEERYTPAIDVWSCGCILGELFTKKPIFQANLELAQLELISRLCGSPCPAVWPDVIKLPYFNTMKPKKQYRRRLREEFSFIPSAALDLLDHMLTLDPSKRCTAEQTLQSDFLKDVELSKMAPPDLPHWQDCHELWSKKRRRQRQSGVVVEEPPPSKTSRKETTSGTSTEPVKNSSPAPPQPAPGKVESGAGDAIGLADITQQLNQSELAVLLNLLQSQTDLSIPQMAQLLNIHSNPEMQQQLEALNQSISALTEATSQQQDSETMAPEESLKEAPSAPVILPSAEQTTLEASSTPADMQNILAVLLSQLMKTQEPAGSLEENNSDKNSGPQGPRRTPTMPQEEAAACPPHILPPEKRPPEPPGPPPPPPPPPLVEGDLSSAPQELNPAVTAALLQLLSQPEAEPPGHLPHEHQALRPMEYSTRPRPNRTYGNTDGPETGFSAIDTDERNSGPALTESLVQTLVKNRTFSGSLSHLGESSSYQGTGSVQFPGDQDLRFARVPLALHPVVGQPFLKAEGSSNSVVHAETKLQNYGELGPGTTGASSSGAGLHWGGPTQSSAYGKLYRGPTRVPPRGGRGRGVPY
T1 sequence (O75909 whole entry partner): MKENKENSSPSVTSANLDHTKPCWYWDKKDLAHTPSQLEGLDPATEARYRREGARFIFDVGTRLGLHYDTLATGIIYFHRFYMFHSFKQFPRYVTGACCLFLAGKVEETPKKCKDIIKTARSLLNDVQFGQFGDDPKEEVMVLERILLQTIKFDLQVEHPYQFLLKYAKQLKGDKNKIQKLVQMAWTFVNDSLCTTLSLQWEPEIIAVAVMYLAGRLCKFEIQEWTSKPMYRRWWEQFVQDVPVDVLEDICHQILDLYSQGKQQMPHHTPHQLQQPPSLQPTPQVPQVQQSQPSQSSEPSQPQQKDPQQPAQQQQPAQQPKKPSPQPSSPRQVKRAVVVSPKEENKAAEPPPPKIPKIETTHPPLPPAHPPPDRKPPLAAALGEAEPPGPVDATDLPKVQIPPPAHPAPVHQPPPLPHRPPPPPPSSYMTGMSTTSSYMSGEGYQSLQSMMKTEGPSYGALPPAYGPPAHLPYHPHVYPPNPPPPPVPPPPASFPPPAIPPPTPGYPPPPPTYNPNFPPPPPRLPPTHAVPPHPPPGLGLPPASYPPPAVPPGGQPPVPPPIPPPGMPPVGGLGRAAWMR

`C=CC(=O)Nc1ccc2c(c1)C(=O)N([C@H]1CCC[C@@H](Nc3ncc(C#N)c(N(C)C)n3)C1)C2` [Example 77, N-(2-((1S,3R)-3-((5-Cyano-4-(dimethylamino)pyrimidin-2-yl)amino)cyclohexyl)-3-oxoisoindolin-5-yl)acrylamide] and `C=CC(=O)Nc1ccc2c(c1)C(=O)N([C@H]1CCC[C@@H](Nc3ncc(Cl)c(OC)n3)C1)C2` [Example 81, N-(2-((1S,3R)-3-((5-Chloro-4-methoxypyrimidin-2-yl)amino)cyclohexyl)-3-oxoisoindolin-5-yl)acrylamide] cannot be ordered by IC50: < 50 nM for the first, < 50 nM for the second.

Compared with `C=C(F)C(=O)Nc1ccc2c(c1)C(=O)N([C@H]1CCC[C@@H](Nc3ncc(C#N)c(OC)n3)C1)C2` [Example 56, N-(2-((1S,3R)-3-((5-Cyano-4-methoxypyrimidin-2-yl)amino)cyclohexyl)-3-oxoisoindolin-5-yl)-2-fluoroacrylamide], `C=CC(=O)N(C)c1ccc2c(c1)C(=O)N([C@H]1CCC[C@@H](Nc3ncc(C#N)c(OC)n3)C1)C2` [Example 65, N-(2-((1S,3R)-3-((5-Cyano-4-methoxypyrimidin-2-yl)amino)cyclohexyl)-3-oxoisoindolin-5-yl)-N-methylacrylamide] is lower in IC50: 50 to 500 nM for the first, < 50 nM for the second.

Compared with `CC#CC(=O)Nc1ccc2c(c1)nc([C@H]1CCC[C@@H](Nc3ncc(C#N)c(OC)n3)C1)n2C` [Example 54, N-(2-((1S,3R)-3-((5-Cyano-4-methoxypyrimidin-2-yl)amino)cyclohexyl)-1-methyl-1H-benzo[d]imidazol-5-yl)but-2-ynamide], `COc1nc(N[C@@H]2CCC[C@H](c3nc4cc(NC(=O)CCl)ccc4n3C)C2)ncc1C#N` [Example 50, 2-Chloro-N-(2-((1S,3R)-3-((5-cyano-4-methoxypyrimidin-2-yl)amino)cyclohexyl)-1-methyl-1H-benzo[d]imidazol-5-yl)acetamide] is lower in IC50: 50 to 500 nM for the first, < 50 nM for the second.

`C=CC(=O)Nc1ccc2c(c1)nc([C@H]1CCC[C@@H](Nc3ncc(C#N)cn3)C1)n2C` [Example 74, N-(2-((1S,3R)-3-((5-Cyanopyrimidin-2-yl)amino)cyclohexyl)-1-methyl-1H-benzo[d]imidazol-5-yl)acrylamide] and `C=CC(=O)Nc1ccc2c(c1)nc([C@H]1CCC[C@@H](Nc3ncc(C(F)(F)F)cn3)C1)n2C` [Example 72, N-(1-Methyl-2-((1S,3R)-3-((5-(trifluoromethyl)pyrimidin-2-yl)amino)cyclohexyl)-1H-benzo[d]imidazol-5-yl)acrylamide] cannot be ordered by IC50: < 50 nM for the first, < 50 nM for the second.

`COc1nc(N[C@@H]2CCCN(c3cc4c(cn3)c(NC(=O)C(C)Br)nn4C)C2)ncc1C#N` (stereo partly drawn) [Example 32, 2-Bromo-N-(6-((R)-3-((5-cyano-4-methoxypyrimidin-2-yl)amino)piperidin-1-yl)-1-methyl-1H-pyrazolo[4,3-c]pyridin-3-yl)propanamide] and `CCC(Br)C(=O)Nc1nn(C)c2cc(N3CCC[C@@H](Nc4ncc(C#N)c(OC)n4)C3)ncc12` (stereo partly drawn) [Example 31, 2-Bromo-N-(6-((R)-3-((5-cyano-4-methoxypyrimidin-2-yl)amino)piperidin-1-yl)-1-methyl-1H-pyrazolo[4,3-c]pyridin-3-yl)butanamide] cannot be ordered by IC50: < 50 nM for the first, < 50 nM for the second.

`C=CC(=O)Nc1ccc2c(c1)C(=O)N([C@H]1CCC[C@@H](Nc3ncc(C=C)cn3)C1)C2` [Example 7, N-(3-Oxo-2-((1S,3R)-3-((5-vinylpyrimidin-2-yl)amino)cyclohexyl)isoindolin-5-yl)acrylamide] and `C=CC(=O)Nc1ccc2c(c1)C(=O)N([C@H]1CCC[C@@H](Nc3ncc(Cl)cn3)C1)C2` [Example 82, N-(2-((1S,3R)-3-((5-Chloropyrimidin-2-yl)amino)cyclohexyl)-3-oxoisoindolin-5-yl)acrylamide] cannot be ordered by IC50: < 50 nM for the first, < 50 nM for the second.

Compared with `C=CC(=O)Nc1ccc2c(c1)cc(N1CCC[C@@H](Nc3ncc(C#N)c(OC)n3)C1)n2C` [Example 39, (R)—N-(2-(3-((5-Cyano-4-methoxypyrimidin-2-yl)amino)piperidin-1-yl)-1-methyl-1H-indol-5-yl)acrylamide], `C=CC(=O)Nc1ccc2c(N3CCC[C@@H](Nc4ncc(C#N)c(OC)n4)C3)csc2c1` [Example 42, (R)—N-(3-(3-((5-Cyano-4-methoxypyrimidin-2-yl)amino)piperidin-1-yl)benzo[b]thiophen-6-yl)acrylamide] is lower in IC50: > 500 nM for the first, 50 to 500 nM for the second.

`C=CC(=O)Nc1nc2cccc(N3CCC[C@@H](Nc4ncc(C#N)c(OC)n4)C3)n2n1` [Example 22, (R)—N-(5-(3-((5-Cyano-4-methoxypyrimidin-2-yl)amino)piperidin-1-yl)-[1,2,4]triazolo[1,5-a]pyridin-2-yl)acrylamide] and `C=CC(=O)Nc1cccc2c(N3CCC[C@@H](Nc4ncc(C#N)c(OC)n4)C3)noc12` [Example 28, (R)—N-(3-(3-((5-Cyano-4-methoxypyrimidin-2-yl)amino)piperidin-1-yl)benzo[d]isoxazol-7-yl)acrylamide] cannot be ordered by IC50: < 50 nM for the first, < 50 nM for the second.

`C=CC(=O)Nc1ccc2c(c1)nc(N1C[C@H](F)C[C@@H](Nc3ncc(C(F)(F)F)cn3)C1)n2C` [Example 93, N-(2-((3R,5R)-3-Fluoro-5-((5-(trifluoromethyl)pyrimidin-2-yl)amino)piperidin-1-yl)-1-methyl-1H-benzo[d]imidazol-5-yl)acrylamide] and `C=CC(=O)Nc1ccc2c(c1)nc(N1C[C@H](O)C[C@@H](Nc3ncc(C(F)(F)F)cn3)C1)n2C` [Example 88, N-(2-((3R,5R)-3-Hydroxy-5-((5-(trifluoromethyl)pyrimidin-2-yl)amino)piperidin-1-yl)-1-methyl-1H-benzo[d]imidazol-5-yl)acrylamide] cannot be ordered by IC50: < 50 nM for the first, < 50 nM for the second.

`COc1nc(N[C@@H]2CCCN(c3cc4c(cn3)c(NC(=O)CCl)nn4C)C2)ncc1C#N` [Example 33, (R)-2-Chloro-N-(6-(3-((5-cyano-4-methoxypyrimidin-2-yl)amino)piperidin-1-yl)-1-methyl-1H-pyrazolo[4,3-c]pyridin-3-yl)acetamide] and `CC#CC(=O)Nc1nn(C)c2cc(N3CCC[C@@H](Nc4ncc(C#N)c(OC)n4)C3)ncc12` [Example 30, (R)—N-(6-(3-((5-Cyano-4-methoxypyrimidin-2-yl)amino)piperidin-1-yl)-1-methyl-1H-pyrazolo[4,3-c]pyridin-3-yl)but-2-ynamide] cannot be ordered by IC50: < 50 nM for the first, < 50 nM for the second.

`C=CC(=O)Nc1ccc2c(c1)C(=O)N([C@H]1CCC[C@@H](Nc3cc(C#N)c(C(F)(F)F)cn3)C1)C2` [Example 19, N-(2-((1S,3R)-3-((4-Cyano-5-(trifluoromethyl)pyridin-2-yl)amino)cyclohexyl)-3-oxoisoindolin-5-yl)acrylamide] and `C=CC(=O)Nc1ccc2c(c1)C(=O)N([C@H]1CCC[C@@H](Nc3ncc(C(F)(F)F)c(NC)n3)C1)C2` [Example 78, N-(2-((1S,3R)-3-((4-(Methylamino)-5-(trifluoromethyl)pyrimidin-2-yl)amino)cyclohexyl)-3-oxoisoindolin-5-yl)acrylamide] cannot be ordered by IC50: < 50 nM for the first, < 50 nM for the second.

`C=CC(=O)Nc1c(Br)cc2c(nc(N3CCC[C@@H](Nc4ncc(C(F)(F)F)cn4)C3)n2C)c1C` [Example 103, (R)—N-(6-Bromo-1,4-dimethyl-2-(3-((5-(trifluoromethyl)pyrimidin-2-yl)amino)piperidin-1-yl)-1H-benzo[d]imidazol-5-yl)acrylamide] and `C=CC(=O)Nc1ccc2c(c1)nc(N1CCC(F)(F)[C@@H](Nc3ncc(C(F)(F)F)cn3)C1)n2C` [Example 92, (S)—N-(2-(4,4-Difluoro-3-((5-(trifluoromethyl)pyrimidin-2-yl)amino)piperidin-1-yl)-1-methyl-1H-benzo[d]imidazol-5-yl)acrylamide] cannot be ordered by IC50: < 50 nM for the first, < 50 nM for the second.

`CCOC(=O)/C=C/C(=O)Nc1ccc2c(c1)nc([C@H]1CCC[C@@H](Nc3ncc(C#N)c(OC)n3)C1)n2C` [Example 48, Ethyl (E)-4-((2-((1S,3R)-3-((5-Cyano-4-methoxypyrimidin-2-yl)amino)cyclohexyl)-1-methyl-1H-benzo[d]imidazol-5-yl)amino)-4-oxobut-2-enoate] and `C=CC(=O)Nc1ccc2c(c1)C(=O)N([C@H]1CCC[C@@H](Nc3ncc(C(C)C)cn3)C1)C2` [Example 12, N-(2-((1S,3R)-3-((5-Isopropylpyrimidin-2-yl)amino)cyclohexyl)-3-oxoisoindolin-5-yl)acrylamide] cannot be ordered by IC50: < 50 nM for the first, < 50 nM for the second.

`C=CC(=O)Nc1ccc2c(c1)C(=O)N([C@H]1CCC[C@@H](Nc3ncc(C(F)(F)F)s3)C1)C2` [Example 29, N-(3-Oxo-2-((1S,3R)-3-((5-(trifluoromethyl)thiazol-2-yl)amino)cyclohexyl)isoindolin-5-yl)acrylamide] was tested, and the IC50 was < 50 nM.
